According to patent US9133179B2, “2-methoxy-pyridin-4-yl-derivatives” (Actelion Pharmaceuticals Ltd., priority 2011, dated 2015):

Assays:
[1] = biological target: T1, human S1P1 (EDG1) receptor (Homo sapiens, UniProt P21453); assay: S1P1 β-arrestin recruitment (Tango) assay to determine EC50 values; type: cell-based; details: Tango-EDG1 bla U2OS cells, 16 h incubation
T1 construct: host or cells: U2OS (Tango EDG1-bla U2OS)
Text: S1P1 β-Arrestin Recruitment (Tango) Assay to Determine EC50 Values
Upon ligand activation, G protein-coupled receptors (GPCR) trigger two pathways that independently transduce signals to the cell: one through heterotrimeric GTP-binding proteins (G proteins) and one through β-arrestins. Agonist-induced GPCRs recruit β-arrestin proteins, which then bind to the carboxy-terminal domain of ligand-activated GPCRs. The amount of β-arrestin recruitment can be used to assess the potency and efficacy of GPCR activating ligands.
To measure the potency and efficacy of compounds as S1P1 (EDG1) receptor agonists, Tango™-EDG1 bla U2OS cells (Invitrogen, USA, Catalog #K1520) are used. The Tango™ GPCR technology is based on GeneBLAzer β-lactamase reporter cell assays, which uses a mammalian-optimized β-lactamase reporter gene (bla) combined with a FRET-enabled substrate. The host cells, U2OS, stably express a human S1P1 (EDG1) receptor/transcription factor (TF) fusion protein. The cells also express a recombinant protease tagged β-arrestin protein, which is recruited to the S1P1 receptor upon ligand stimulation and specifically cleaves the S1P1-TF fusion protein. The released TF activates the β-lactamase (bla) reporter gene. To measure the reporter gene activity, cells are loaded with a fluorescent substrate containing two chemically coupled fluorophores, coumarin and fluorescein. […] In the presence of bla, the chemical bond is cleaved and FRET is inhibited. […] The amount of β-arrestin recruitment is proportional to the increase in blue fluorescence.
Tango™-EDG1 bla U2OS cells are cultivated in McCoy's 5A containing 10% dialyzed FBS, 0.1 mM NEAA, 25 mM HEPES, 1 mM sodium pyruvate, 1% Penicillin/Streptomycin, 200 μg/ml zeocin, 50 μg/ml hygromycin and 100 μg/ml geneticin (Invitrogen, USA). Cells are detached with trypsin, resuspended in medium and then counted.
Compounds (10 mM stock in DMSO) are diluted first in DMSO. The pre-diluted compounds solutions are then transferred into Assay Medium/0.1% fatty acid free BSA to reach a fourfold concentrated compound stock, which is applied to the cells to reach the final compound concentrations that range from 10 μM to 0.0005 nM (0.5% final DMSO). Cells are then incubated for 16 h at 37° C. and 5% CO2.

circulating lymphocytes = assay: Assessment of in vivo efficacy: circulating lymphocytes after oral administration to Wistar rats; set-up: species or system rat; details: Rattus norvegicus, Lymphocyte; 6 h after oral administration of 10 mg/kg, normotensive male Wistar rats, compared to vehicle group; read-out: Lymphocyte counts
Experimental: Assessment of In Vivo Efficacy
The efficacy of the compounds of Formula (I) is assessed by measuring the circulating lymphocytes after oral administration of 3 to 30 mg/kg of a compound of Formula (I) to normotensive male Wistar rats. The animals are housed in climate-controlled conditions with a 12 h-light/dark cycle, and have free access to normal rat chow and drinking water. […] Full blood is subjected to hematology using Advia Hematology system (Bayer Diagnostics, Zurich, Switzerland).
All data are presented as mean±SEM. Statistical analyses are performed by analysis of variance (ANOVA) using Statistica (StatSoft) and the Student-Newman-Keuls procedure for multiple comparisons. The null hypothesis is rejected when p<0.05.

rat trachea rings = assay: Measurement of isometric force development: constriction of rat trachea rings; details: for % trachea constriction at 10 nM / % trachea constriction at 30 nM / % trachea constriction at 0.3 μM / % trachea constriction at 3 μM / % trachea constriction at 10 μM / % trachea constriction at 30 μM: in % of the constriction induced by 50 mM KCl; for activation at 0.1 µM / activation at 1 µM: Rattus norvegicus; for activation at 0.1 µM: read-out: % trachea constriction at 0.1 μM; for activation at 1 µM: read-out: % trachea constriction at 1 μM
Experimental: Measurement of Isometric Force Development
Female Wistar rats are euthanized by exposure to CO2. The tracheae are excised and rings from the lower segments are prepared. […] A resting force of 2 g (20 mN) is applied to the ring preparation, and changes in force generation are measured using an isometric force recorder (EMKA Technologies Inc., Paris, France). Viability of rings is assessed by exposure to a depolarizing concentration of KCl (50 mM). Contraction of trachea is expressed as a percentage of the response to KCl.
The compounds are prepared as stock solutions of 0.3 mM in pure DMSO.

T1 sequence (P21453 whole entry): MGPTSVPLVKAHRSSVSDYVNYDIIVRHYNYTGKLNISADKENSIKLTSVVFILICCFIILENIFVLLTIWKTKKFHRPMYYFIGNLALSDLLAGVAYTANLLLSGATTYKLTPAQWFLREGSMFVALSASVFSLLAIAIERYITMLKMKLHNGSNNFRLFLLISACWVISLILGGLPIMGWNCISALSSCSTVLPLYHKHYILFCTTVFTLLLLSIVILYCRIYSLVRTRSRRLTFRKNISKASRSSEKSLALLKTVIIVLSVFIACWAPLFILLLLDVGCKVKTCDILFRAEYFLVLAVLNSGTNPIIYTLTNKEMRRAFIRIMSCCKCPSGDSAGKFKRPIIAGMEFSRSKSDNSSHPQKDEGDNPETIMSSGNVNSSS

EC50 [1] | concentration at which significant (or KCl-comparable) rat trachea constriction is shown (rat trachea rings; rat trachea rings) | concentration at which significant (or full) rat trachea constriction is shown (rat trachea rings; rat trachea rings) | SMILES | change in vivo at 10 mg/kg (circulating lymphocytes) | % trachea constriction at 10 nM (rat trachea rings) | % trachea constriction at 30 nM (rat trachea rings) | activation at 0.1 µM (rat trachea rings) | activation at 1 µM (rat trachea rings) | % trachea constriction at 0.3 μM (rat trachea rings) | % trachea constriction at 3 μM (rat trachea rings) | % trachea constriction at 10 μM (rat trachea rings) | % trachea constriction at 30 μM (rat trachea rings)
0.627 nM | – | – | COc1cc(-c2nc(-c3cc(Cl)c(OCCCC(=O)O)c(OC)c3)no2)cc(C2CCCC2)n1 [Example 35, 4-(2-Chloro-4-(5-(2-cyclopentyl-6-methoxypyridin-4-yl)-1,2,4-oxadiazol-3-yl)-6-methoxyphenoxy)butanoic acid] | -71% | <5% | <5% | 86% | 108% | – | – | – | –
0.072 nM | – | – | CCc1cc(-c2noc(-c3cc(OC)nc(C4CCCC4)c3)n2)cc(C)c1OCCCNC(=O)CCC(=O)O [Example 32, 4-((3-(4-(5-(2-Cyclopentyl-6-methoxypyridin-4-yl)-1,2,4-oxadiazol-3-yl)-2-ethyl-6-methylphenoxy)propyl)amino)-4-oxobutanoic acid] | -65% | – | – | 27% | 105% | 50% | – | – | –
1.1 nM | – | – | COc1cc(-c2nc(-c3cc(C)c(OCC(=O)O)c(Cl)c3)no2)cc(C2CCCC2)n1 [Example 41, 2-(2-Chloro-4-(5-(2-cyclopentyl-6-methoxypyridin-4-yl)-1,2,4-oxadiazol-3-yl)-6-methylphenoxy)acetic acid] | -49% | <5% | 10% | 56% | 120% | – | – | – | –
1.7 nM | – | 10000 nM | COc1cc(-c2nc(-c3cc(C)c(OCCNCCO)c(Cl)c3)no2)cc(C2CCCC2)n1 [Example 45, 2-((2-(2-Chloro-4-(5-(2-cyclopentyl-6-methoxypyridin-4-yl)-1,2,4-oxadiazol-3-yl)-6-methylphenoxy)ethyl)amino)ethanol] | -72% | – | – | – | < 5% | – | <5% | 52% | –
0.1 nM | – | – | CCc1cc(-c2nc(-c3cc(OC)nc(C4CCCC4)c3)no2)cc(C)c1OCCCC(=O)O [Example 54, 4-(4-(3-(2-Cyclopentyl-6-methoxypyridin-4-yl)-1,2,4-oxadiazol-5-yl)-2-ethyl-6-methylphenoxy)butanoic acid] | -72% | – | <5% | 5.6% | 76% | 55% | – | – | –
10.3 nM | – | – | CCc1cc(-c2noc(-c3cc(OC)nc(C4CCCC4)c3)n2)cc(C)c1OCCNCC(O)CO (racemic) [Example 27, rac-3-((2-(4-(5-(2-Cyclopentyl-6-methoxypyridin-4-yl)-1,2,4-oxadiazol-3-yl)-2-ethyl-6-methylphenoxy)ethyl)amino)propane-1,2-diol] | -42% | – | – | – | – | – | – | – | –
0.3 nM | – | – | CCc1cc(-c2noc(-c3cc(OC)nc(C4CCCC4)c3)n2)cc(C)c1OCCCNCC(=O)O [Example 18, 2-((3-(4-(5-(2-Cyclopentyl-6-methoxypyridin-4-yl)-1,2,4-oxadiazol-3-yl)-2-ethyl-6-methylphenoxy)propyl)amino)acetic acid] | -24% | – | – | – | – | – | – | – | –
2.4 nM | – | – | CCc1cc(-c2noc(-c3cc(OC)nc(C4CCCC4)c3)n2)cc(C)c1OCC(=O)NCCO [Example 13, 2-(4-(5-(2-Cyclopentyl-6-methoxypyridin-4-yl)-1,2,4-oxadiazol-3-yl)-2-ethyl-6-methylphenoxy)-N-(2-hydroxyethyl)acetamide] | -77% | – | – | – | < 5% | – | – | <5% | –
0.0716 nM | – | – | CCc1cc(-c2noc(-c3cc(OC)nc(C4CCCC4)c3)n2)cc(C)c1OCCCNC(=O)CC(=O)O [Example 31, 3-((3-(4-(5-(2-Cyclopentyl-6-methoxypyridin-4-yl)-1,2,4-oxadiazol-3-yl)-2-ethyl-6-methylphenoxy)propyl)amino)-3-oxopropanoic acid] | -68% | – | – | – | – | – | – | – | –

More lines, now with the values behind:

SMILES | EC50 [1] | concentration at which significant (or KCl-comparable) rat trachea constriction is shown (rat trachea rings; rat trachea rings) | concentration at which significant (or full) rat trachea constriction is shown (rat trachea rings; rat trachea rings) | change in vivo at 10 mg/kg (circulating lymphocytes) | % trachea constriction at 10 nM (rat trachea rings) | % trachea constriction at 30 nM (rat trachea rings) | activation at 0.1 µM (rat trachea rings) | activation at 1 µM (rat trachea rings) | % trachea constriction at 0.3 μM (rat trachea rings) | % trachea constriction at 3 μM (rat trachea rings) | % trachea constriction at 10 μM (rat trachea rings) | % trachea constriction at 30 μM (rat trachea rings)
CCc1cc(-c2noc(-c3cc(OC)nc(C4CCCC4)c3)n2)cc(C)c1OCC(=O)O [Example 5, 2-(4-(5-(2-Cyclopentyl-6-methoxypyridin-4-yl)-1,2,4-oxadiazol-3-yl)-2-ethyl-6-methylphenoxy)acetic acid] | 1.6 nM | – | – | -35% | <5% | <5% | 66% | 124% | 84% | – | – | –
CCc1cc(-c2noc(-c3cc(OC)nc(C4CCCC4)c3)n2)cc(C)c1OCCCC(=O)O [Example 6, 4-(4-(5-(2-Cyclopentyl-6-methoxypyridin-4-yl)-1,2,4-oxadiazol-3-yl)-2-ethyl-6-methylphenoxy)butanoic acid] | 0.2 nM | 300 nM | – | -53% | <5% | <5% | < 5% | 110% | 91% | – | – | –
CCc1cc(-c2noc(-c3cc(OC)nc(C4CCCC4)c3)n2)cc(C)c1OCCNCC(=O)O [Example 7, 2-((2-(4-(5-(2-Cyclopentyl-6-methoxypyridin-4-yl)-1,2,4-oxadiazol-3-yl)-2-ethyl-6-methylphenoxy)ethyl)amino)acetic acid] | 1.5 nM | – | 1000 nM | -70% | <5% | – | < 5% | 68% | <5% | – | – | –
CCc1cc(-c2noc(-c3cc(OC)nc(C4CCCC4)c3)n2)cc(C)c1OCCNCCC(=O)O [Example 1, 3-((2-(4-(5-(2-Cyclopentyl-6-methoxypyridin-4-yl)-1,2,4-oxadiazol-3-yl)-2-ethyl-6-methylphenoxy)ethyl)amino)propanoic acid] | 0.04 nM | – | – | -69% | – | – | < 5% | 96% | 53% | – | – | –
CCc1cc(-c2noc(-c3cc(OC)nc(C4CCCC4)c3)n2)cc(C)c1OC[C@@H](O)CNC(CO)CO [Example 4] | 6.6 nM | – | – | -65% | – | – | – | < 5% | – | <5% | <5% | <5%
CCc1cc(-c2noc(-c3cc(OC)nc(C4CCCC4)c3)n2)cc(C)c1OCCN1CC(C(=O)O)C1 [Example 2, 1-(2-(4-(5-(2-Cyclopentyl-6-methoxypyridin-4-yl)-1,2,4-oxadiazol-3-yl)-2-ethyl-6-methylphenoxy)ethyl)azetidine-3-carboxylic acid] | 0.4 nM | – | – | -70% | <5% | <5% | < 5% | 93% | 55% | – | – | –
CCc1cc(-c2noc(-c3cc(OC)nc(C4CCCC4)c3)n2)cc(C)c1OC[C@@H](O)CNCCO [Example 3] | 8.3 nM | – | – | -25% | – | – | – | < 5% | – | <5% | <5% | <5%
